According to ChEMBL document CHEMBL3244329, “Nicotinamide adenine dinucleotide phosphate-decanaldehyde adduct as an inhibitor of beef brain NADP-linked aldehyde reductase” (J Med Chem, 1979):

Target: Aldo-keto reductase family 1 member A1 (Bos taurus, UniProt Q3ZCJ2)
Assay: Inhibition of beef brain NADP-dependent aldehyde reductase using p-nitrobenzaldehyde by competitive inhibition assay

Aldo-keto reductase family 1 member A1, sequence (Q3ZCJ2 2-325 limits assumed): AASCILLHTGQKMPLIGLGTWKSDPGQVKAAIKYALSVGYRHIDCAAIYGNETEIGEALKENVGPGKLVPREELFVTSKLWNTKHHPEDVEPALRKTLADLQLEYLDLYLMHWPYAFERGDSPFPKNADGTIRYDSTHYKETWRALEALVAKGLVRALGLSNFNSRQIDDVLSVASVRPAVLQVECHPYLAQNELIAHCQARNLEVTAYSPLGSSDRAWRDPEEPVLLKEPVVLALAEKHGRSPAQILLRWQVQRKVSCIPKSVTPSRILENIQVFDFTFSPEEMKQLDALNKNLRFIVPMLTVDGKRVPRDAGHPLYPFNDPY

| Ki [µM] | SMILES |
| --- | --- |
| 2.3 | CCCCCCCCC1C(O)NC(=O)C2=CN([C@@H]3O[C@H](COP(=O)(O)O[C@H]4[C@@H](O)[C@H](n5cnc6c(N)ncnc65)O[C@@H]4COP(=O)(O)OP(=O)(O)O)[C@@H](O)[C@H]3O)C=C[C@H]21 (some centres undefined) |
| 7 | Nc1ncnc2c1ncn2[C@@H]1O[C@H](COP(=O)(O)OP(=O)(O)O)[C@@H](OP(=O)(O)OC[C@H]2O[C@@H](N3C=C[C@@H]4C(=C3)C(=O)NC(O)C4Cc3ccccc3)[C@H](O)[C@@H]2O)[C@H]1O (some centres undefined) |
| 13 | CCC1C(O)NC(=O)C2=CN([C@@H]3O[C@H](COP(=O)(O)O[C@H]4[C@@H](O)[C@H](n5cnc6c(N)ncnc65)O[C@@H]4COP(=O)(O)OP(=O)(O)O)[C@@H](O)[C@H]3O)C=C[C@H]21 (some centres undefined) |
| 5.1 | Nc1ncnc2c1ncn2[C@@H]1O[C@H](COP(=O)(O)OP(=O)(O)O)[C@@H](OP(=O)(O)OC[C@H]2O[C@@H](N3C=C[C@@H]4C(=C3)C(=O)NC(O)C4c3ccccc3)[C@H](O)[C@@H]2O)[C@H]1O (some centres undefined) |
